Counter-ions that a name gives are not always drawn.

In the experiment the target is rhSYK (Homo sapiens (Human), UniProt P43405). As to conditions: read-out: rhSYK activity.

For the molecule `Cc1cc(Nc2nccc(C(F)(F)F)n2)cc(-c2cnc(C3(C(N)=O)CCC(N)CC3)s2)c1` (stereo not drawn) [molecule A, cis-4-amino-1-[5-(3-methyl-5-{[4-(trifluoromethyl)pyrimidin-2-yl]amino}phenyl)-1,3-thiazol-2-yl]cyclohexanecarboxamide], the IC50 was less than 100 nM.
Take `O=C(Nc1cc(Nc2nccc(C(F)(F)F)n2)cc(-c2cnc(C3(O)CCC3)s2)c1)NC1CCCC1` [Example 19, 1-cyclopentyl-3-(3-[2-(1-hydroxycyclobutyl)-1,3-thiazol-5-yl]-5-{[4-(trifluoromethyl)pyrimidin-2-yl]amino}phenyl)urea]: the IC50 is less than 100 nM.
In the case of `Cc1cc(Nc2nccc(C(F)(F)F)n2)cc(-c2cnc(C3(O)CCN(S(=O)(=O)c4ccccc4)CC3)s2)c1` [Example 50, 4-[5-(3-methyl-5-{[4-(trifluoromethyl)pyrimidin-2-yl]amino}phenyl)-1,3-thiazol-2-yl]-1-(phenylsulfonyl)piperidin-4-ol], the IC50 lay within 100 to 1000 nM.
In the case of `Cc1cc(Nc2nccc(C(F)(F)F)n2)cc(-c2cnc(C(NC(=O)C3(C(N)=O)CC3)(C3CC3)C3CC3)s2)c1` [Example 67, N-{dicyclopropyl[5-(3-methyl-5-{[4-(trifluoromethyl)pyrimidin-2-yl]amino}phenyl)-1,3-thiazol-2-yl]methyl}cyclopropane-1,1-dicarboxamide], the IC50 is less than 100 nM.
`Cc1cc(Nc2nccc(C(F)(F)F)n2)cc(-c2cnc(C3(O)CCC(C4(N)CC4)CC3)s2)c1` (centres unmarked) [Example 4C-20]: the IC50 was less than 100 nM.
`OC1(c2ncc(-c3cccc(Nc4nccc(C(F)(F)F)n4)c3)s2)COC1` [Example 4B-11]: the IC50 was less than 100 nM.
The result for `COC(=O)[C@H](C)Cc1ncc(-c2cc(C)cc(Nc3nccc(C(F)(F)F)n3)c2)s1` [Example 76, Methyl (2R)-2-methyl-3-[5-(3-methyl-5-{[4-(trifluoromethyl)pyrimidin-2-yl]amino}phenyl)-1,3-thiazol-2-yl]propanoate] reads less than 100 nM; that for `OC(c1ncc(-c2cccc(Nc3nccc(C(F)(F)F)n3)c2)s1)(C(F)(F)F)C(F)(F)F` [Example 4A-3], less than 100 nM.
For the molecule `Cc1cc(Nc2nccc(C(F)(F)F)n2)cc(-c2cnc(C3(NC(N)=O)CCC3)s2)c1` [Example 64, 1-{1-[5-(3-methyl-5-{[4-(trifluoromethyl)pyrimidin-2-yl]amino}phenyl)-1,3-thiazol-2-yl]cyclobutyl}urea], the IC50 was less than 100 nM.
The result for `CC(=O)N1CCC(O)(c2ncc(-c3cc(C)cc(Nc4nccc(C(F)(F)F)n4)c3)s2)CC1` [Example 51, 1-(4-hydroxy-4-[5-(3-methyl-5-{[4-(trifluoromethyl)pyrimidin-2-yl]amino}phenyl)-1,3-thiazol-2-yl]piperidin-1-yl)ethanone] reads less than 100 nM; that for `Cc1cc(Nc2nccc(C)n2)cc(-c2cnc(C3(C)OC(=O)CC3(C)C)s2)c1` (centres unmarked) [Example 4B-58], less than 100 nM.
The result for `Cc1cc(Nc2nccc(C(F)(F)F)n2)cc(-c2cnc(C3CCC(=O)O3)s2)c1` (centres unmarked) [Example 4B-60] reads less than 100 nM; that for `Cc1cc(Nc2nccc(C(F)(F)F)n2)cc(-c2cnc(C3(O)CCC(=O)CC3)s2)c1` [Example 7, 4-hydroxy-4-[5-(3-methyl-5-{[4-(trifluoromethyl)pyrimidin-2-yl]amino}phenyl)-1,3-thiazol-2-yl]cyclohexanone], less than 100 nM; that for `Cc1cc(Nc2nccc(C(F)(F)F)n2)cc(-c2cnc(C(C)(C)S(C)(=O)=O)s2)c1` [Example 73, N-(3-methyl-5-{2-[2-(methylsulfonyl)propan-2-yl]-1,3-thiazol-5-yl}phenyl)-4-(trifluoromethyl)pyrimidin-2-amine], less than 100 nM.
In the case of `CCOC(=O)C1CCC(O)(c2ncc(-c3cc(C)cc(Nc4nccc(C)n4)c3)s2)CC1c1ccccc1C` (centres unmarked) [Example 4C-27] it was 100 to 1000 nM; in that of `Cc1cc(Nc2nccc(C(F)(F)F)n2)cc(-c2cnc(C3(O)CN(C(C)(C)C(=O)OC(C)(C)C(=O)O)C3)s2)c1` [Example 53(2), 2-[(2-{3-Hydroxy-3-[5-(3-methyl-5-{[4-(trifluoromethyl)pyrimidin-2-yl]amino}phenyl)-1,3-thiazol-2-yl]azetidin-1-yl}-2-methylpropanoyl)oxy]-2-methylpropanoic acid], less than 100 nM.
`OC1(c2ncc(-c3cc(NCC(F)(F)F)cc(Nc4nccc(C(F)(F)F)n4)c3)s2)CCC1` [Example 27, 1-[5-(3-[(2,2,2-trifluoroethyl)amino]-5-{[4-(trifluoromethyl)pyrimidin-2-yl]amino}phenyl)-1,3-thiazol-2-yl]cyclobutanol]: the IC50 is less than 100 nM.
On to `Cc1cc(Nc2nccc(C(F)(F)F)n2)cc(-c2cnc(C3(O)CCN(C(=O)OC(C)(C)C)CC3)s2)c1` [Example 45, tert-butyl 4-hydroxy-4-[5-(3-methyl-5-{[4-(trifluoromethyl)pyrimidin-2-yl]amino}phenyl)-1,3-thiazol-2-yl]piperidine-1-carboxylate], for which the IC50 was less than 100 nM.
On to `COC1(c2ncc(-c3cc(C)cc(Nc4nccc(C(F)(F)F)n4)c3)s2)CCC(C(=O)O)CC1` (stereo not drawn) [Example 40(1), 2-({3-[2-(cis-4-Carboxy-1-methoxycyclohexyl)-1,3-thiazol-5-yl]-5-methylphenyl}amino)-4-(trifluoromethyl)pyrimidin-1-ium trifluoroacetate], for which the IC50 was less than 100 nM.
In the case of `FC(F)(F)c1cc(Br)cc(Nc2nccc(C(F)(F)F)n2)c1` [N-[3-bromo-5-(trifluoromethyl)phenyl]-4-(trifluoromethyl)pyrimidin-2-amine] it was 1000 to 10000 nM; in that of `Cc1cc(Nc2ncc(F)c(C)n2)cc(-c2cncs2)c1` [Intermediate 49, 5-Fluoro-4-methyl-N-[3-methyl-5-(1,3-thiazol-5-yl)phenyl]pyrimidin-2-amine], less than 100 nM; in that of `O=C(c1ncc(-c2cccc(Nc3nccc(C(F)(F)F)n3)c2)s1)C(F)(F)F` [Example 6-1], less than 100 nM.
In the case of `O=C(c1ncc(-c2cccc(Nc3nccc(C(F)(F)F)n3)c2)s1)C1CC1` [Example 11, Cyclopropyl[5-(3-{[4-(trifluoromethyl)pyrimidin-2-yl]amino}phenyl)-1,3-thiazol-2-yl]methanone], the IC50 was less than 100 nM.
With `OC1(c2ncc(-c3cc(Nc4nccc(C(F)(F)F)n4)cc(C(F)(F)F)c3)s2)CCC1` [Example 2, 1-{5-[3-(trifluoromethyl)-5-{[4-(trifluoromethyl)pyrimidin-2-yl]amino}phenyl]-1,3-thiazol-2-yl}cyclobutanol], the IC50 was 100 to 1000 nM.
In the case of `CC(O)(CO)c1ncc(-c2cccc(Nc3nccc(C(F)(F)F)n3)c2)s1` (single isomer, unassigned) [Ex 5-2] it was less than 100 nM; in that of `Cc1cc(Nc2nccc(C(F)(F)F)n2)cc(-c2cnc(C3(O)CCCC(=O)C3(C)C)s2)c1` (centres unmarked) [Example 8B-1], less than 100 nM.
In the case of `Cc1cc(Nc2ncc(Cl)cn2)cc(-c2cncs2)c1` [Intermediate 48, 5-Chloro-N-[3-methyl-5-(1,3-thiazol-5-yl)phenyl]pyrimidin-2-amine] it was 100 to 1000 nM; in that of `Cc1cc(Nc2nccc(C)n2)cc(-c2cnc(C3(O)CCC(C(=O)O)[C@H]4CCCC[C@@H]43)s2)c1` (some centres unmarked) [Example 4B-23], less than 100 nM; in that of `Cc1cc(Nc2nccc(C(F)(F)F)n2)cc(-c2cnc(C(C)(O)C(C)(C)O)s2)c1` (centres unmarked) [Ex 5-4], less than 100 nM.
On to `Cc1cc(Nc2nccc(C(F)(F)F)n2)cc(-c2cnc(C3(C)OC(=O)CC3(C)C)s2)c1` (centres unmarked) [Example 4B-61], for which the IC50 was less than 100 nM.
In the case of `Cc1cc(Nc2nccc(C(F)(F)F)n2)cc(-c2cnc(C3(O)COC(C)(C)OC3)s2)c1` [Example 4B-14] it was less than 100 nM; in that of `OC1(c2ncc(-c3cc(Nc4nccc(C(F)(F)F)n4)cc(C(F)F)c3)s2)CCC1` [Example 28, 1-{5-[3-(difluoromethyl)-5-{[4-(trifluoromethyl)pyrimidin-2-yl]amino}phenyl]-1,3-thiazol-2-yl}cyclobutanol], less than 100 nM; in that of `CC(O)(CO)c1ncc(-c2cc(F)cc(Nc3ncc(F)c(C4CC4)n3)c2)s1` (centres unmarked) [Example 57, 2-(5-{3-[(4-cyclopropyl-5-fluoropyrimidin-2-yl)amino]-5-fluorophenyl}-1,3-thiazol-2-yl)propane-1,2-diol], less than 100 nM.
On to `Cc1cc(Nc2nccc(C(F)(F)F)n2)cc(-c2cnc(C(C)(O)c3ccc(C(C)(C)O)cc3)s2)c1` (centres unmarked) [Example 9-1], for which the IC50 lay within 100 to 1000 nM.
Consider `Cc1cc(Nc2nccc(C(F)(F)F)n2)cc(-c2cnc(C3(O)CCC(CCN)CC3)s2)c1` (centres unmarked) [Example 4C-5], for which the IC50 is less than 100 nM.
As for `Cc1cc(Nc2nccc(C)n2)cc(-c2cnc(C3(O)CCC(C)(CC(=O)O)CC3)s2)c1` (single isomer, unassigned) [Example 4C-11], the IC50 was less than 100 nM.
For `Cc1cc(Nc2nccc(C(F)(F)F)n2)cc(-c2cnc(C3(O)CCCC4CC43)s2)c1` (centres unmarked) [Example 4B-18], the IC50 is less than 100 nM.
Consider `Cc1cc(Nc2nccc(C(F)(F)F)n2)cc(-c2cnc(C(C)(C)O)s2)c1` [Example 4, 2-[5-(3-methyl-5-{[4-(trifluoromethyl)pyrimidin-2-yl]amino}phenyl)-1,3-thiazol-2-yl]propan-2-ol], for which the IC50 was less than 100 nM.
Turning to `Cc1cc(Nc2nccc(C(F)(F)F)n2)cc(-c2cnc(C3(O)CCN(S(N)(=O)=O)CC3)s2)c1` [Example 49, 4-hydroxy-4-[5-(3-methyl-5-{[4-(trifluoromethyl)pyrimidin-2-yl]amino}phenyl)-1,3-thiazol-2-yl]piperidine-1-sulfonamide], the IC50 is less than 100 nM.
On to `Cc1cc(Nc2nccc(C(C)C)n2)cc(-c2cnc(C3(O)CCC3)s2)c1` [Example 56, 1-[5-(3-methyl-5-{[4-(propan-2-yl)pyrimidin-2-yl]amino}phenyl)-1,3-thiazol-2-yl]cyclobutanol HCl salt], for which the IC50 was less than 100 nM.
Consider `CCOC(=O)C1CCC(O)(c2ncc(-c3cc(C)cc(N(C(=O)OC(C)(C)C)c4nccc(C(F)(F)F)n4)c3)s2)CC1` (centres unmarked) [Intermediate 119, Ethyl 4-[5-(3-{(tert-butoxycarbonyl)[4-(trifluoromethyl)pyrimidin-2-yl]amino}-5-methylphenyl)-1,3-thiazol-2-yl]-4-hydroxycyclohexanecarboxylate], for which the IC50 was 1000 to 10000 nM.

For the origin of these results see patent publication US8759366B2, “Aminopyrimidines as SYK inhibitors” (Merck Sharp & Dohme Corp., priority 2009, dated 2014).
